Test results from patent US20100119595A1, “Monounsaturated fatty acids and perhydrocyclopentanophenanthrene nucleus combination molecules, and their precursors, and the use of all of these as weight-loss agents” (priority 2001, published 2010).

Experiments:
[1] = Human study of 2 hydroxyestrone oleate (Example 11); format: in vivo; settings: humans, oral capsule, 0.75 or 0.375 micromoles/kg
Procedure: In this random, double-blind, placebo controlled study, subjects are selected to one of three groups and take a capsule orally every morning containing one of the following: a) sunflower oil (placebo), b) 2 hydroxyestrone oleate dissolved in sunflower oil at a dose of 0.75 micromoles/kg, or c) 2 hydroxyestrone oleate dissolved in sunflower oil at a dose of 0.375 micromoles/kg. […]
Different tests are performed at least five different times during each study, namely at the screening of potential participants, at the beginning of the study, weekly during the trials, at the end of the first 4 week period and at the end of the second 4 week treatment period. • 1) SCREENING: Subjects are screened to exclude hypothyroidism, pregnancy, and heart disease. […] Subjects selected to participate in the studies have the following initial measurements: WEIGHT, WAIST to HIP RATIO, HEIGHT, BMI (calculated), BODY FAT % & TOTAL BODY FAT (via bioelectrical impedance method). […]
Ad libitum diets are followed, and food intake and appetite are assessed daily by the patient with an appropriate questionnaire and booklet. […]

[2] = Rabbit study at mole/kg dose equivalent to that used for oleoyl-estrone in rats; format: in vivo, rabbits
Excerpt: The eicosenoic acid-estrogen monoesters mimic the function of the naturally occurring fatty acid monoester, estrone monooleate, as a signal that informs the brain of the size of fat tissue mass. When administered to rabbits, they produce weight reduction of about 20%, by a) decreasing food intake and b) by a new and unexpected mechanism. Eicosenoic acid-estrogen monoesters are useful for the treatment of obesity and/or overweight in mammals, with the advantages of high efficacy and low toxicity.

SMILES | appetite [1] | weight loss, loss of body fat, and/or decrease of body fat% [1] | greater reduction in appetite in rabbits than oleoyl-estrone did in rats [2] | greater weight loss in rabbits than oleoyl-estrone did in rats [2]
CCCCCCCC/C=C\CCCCCCCC(=O)Oc1cc2c(cc1O)[C@H]1CC[C@]3(C)C(=O)CC[C@H]3[C@@H]1CC2 [2HOE, 2 hydroxyestrone oleate] | reduces appetite | produces weight loss | – | –
CCCCCCCC/C=C\CCCCCCCCCC(=O)Oc1ccc2c(c1)CC[C@@H]1[C@@H]2CC[C@]2(C)C(=O)CC[C@@H]12 [EE, estrone eicosenoate] | – | – | 50% | 60%
